Read-outs that look alike come from different tables or passages of the source. Marks after values point to notes of the source that are not given here. Numbered stars: 1 amine (or outer) side, 2 acyl side, 3 side chain; on linkers, the order of the positions; unused ones are H or OH. Bridge positions count the residues as written; N and C are the ends. Square brackets hold non-standard residues; d marks the D form. Peptide text beside a SMILES is read from it. * marks the point of attachment. X1 = COc1cc2cc(c1Cl)N(C)C(=O)C[C@H](OC(=O)[C@H](C)N(C)C(=O)CCC(C)(C)SSCCCC(=O)*)[C@]1(C)O[C@H]1[C@H](C)[C@@H]1C[C@@](O)(NC(=O)O1)[C@H](OC)/C=C/C=C(\C)C2; X2 = COc1cc2cc(c1Cl)N(C)C(=O)C[C@H](OC(=O)[C@H](C)N(C)C(=O)CCC(C)SSC(C)CCC(=O)*)[C@]1(C)O[C@H]1[C@H](C)[C@@H]1C[C@@](O)(NC(=O)O1)[C@H](OC)/C=C/C=C(\C)C2; 1Nal = N[C@@H](Cc1cccc2ccccc12)C(=O)O; TBMB = c1c(C[*:1])cc(C[*:3])cc1C[*:2]; Tle = CC(C)(C)[C@H](N)C(=O)O; βAla = NCCC(=O)O; Sar = CNCC(=O)O
Experiments:
[1] = target: T1, MT1-MMP hemopexin domain (PEX) (Homo sapiens, UniProt P50281); test: Competition assay using fluorescence polarisation; format: binding
T1 construct: residues Cys319-Gly511 from the human gene; His6 (N); made in house; host or cells: HEK293 (transient, pEXPR-IBA42 vector)
Text: (§1) Here, a pre-formed complex of PEX with the fluorescent PEX-binding tracer is titrated with free, non-fluoresceinated bicyclic peptide. Since all 17-69-based peptides are expected to bind at the same site, the titrant will displace the fluorescent tracer from PEX. Dissociation of the complex can be measured quantitatively, and the Kd of the competitor (titrant) to the target protein determined. The advantage of the competition method is that the affinities of non-fluoresceinated bicyclic peptides can be determined accurately and rapidly.
(§2) Subsequently, the non-fluorescent competitor bicyclic peptide (usually just the bicycle core sequence) is titrated, such that it displaces the fluorescent tracer from the target protein. The displacement of the tracer is measured and associated with a drop in fluorescence polarisation. The drop in fluorescence polarisation is proportional to the fraction of target protein bound with the non-fluorescent titrant, and thus is a measure of the affinity of titrant to target protein.
The raw data is fit to the analytical solution of the cubic equation that describes the equilibria between fluorescent tracer, titrant, and binding protein. The fit requires the value of the affinity of fluorescent tracer to the target protein, which can be determined separately by direct binding FP experiments (see previous section).

MT1-MMP hemopexin domain [2] = test: FP competition, species cross-reactivity (dog); format: binding; settings: Table 13
Text: as §1, §2
(§3) The raw data is fit to the analytical solution of the cubic equation that describes the equilibria between fluorescent tracer, titrant, and binding protein. The fit requires the value of the affinity of fluorescent tracer to the target protein, which can be determined separately by direct binding FP experiments (see previous section). […]

[3] = Plasma stability, quantitative LC-MS (Method #2); format: in vitro ADME, mouse; settings: for half-life at 4 μM: mouse, quantitative LC-MS, incubation up to 24 hrs, 4 μM BDC, read-out: t1/2 (hrs) (mouse plasma) (converted)
Protocol: To obtain plasma stability of bicyclic peptides quantitatively, peptide stock solutions (200 μM in DMSO) were mixed with plasma (human or mouse), such that final concentrations were 10 μM. 40 μL samples were taken periodically up to 8 hrs and frozen at −80° C. Prior to LC-MS analysis, samples were defrosted, and mixed with 3 volumes (here, 120 μL) of 1:1 acetonitrile/MeOH water. The milky suspensions were centrifuged for 30 min at 13000 rpm, and peptide-containing supernatants were quantitated for doubly/triply charged species and MS/MS fragments thereof using a Waters Xevo TQ-D instrument, while using a plasma extracted standard curve of the same peptides as a reference. The half-life of degradation in plasma was used to assess the comparative stability of the molecules.

[4] = Plasma stability, quantitative LC-MS (Method #2); format: in vitro ADME, human; settings: for half-life at 4 μM: read-out: t1/2 (hrs) (human plasma) (converted)
Protocol: […] […] Prior to LC-MS analysis, samples were defrosted, and mixed with 3 volumes (here, 120 μL) of 1:1 acetonitrile/MeOH water. The milky suspensions were centrifuged for 30 min at 13000 rpm, and peptide-containing supernatants were quantitated for doubly/triply charged species and MS/MS fragments thereof using a Waters Xevo TQ-D instrument, while using a plasma extracted standard curve of the same peptides as a reference. The half-life of degradation in plasma was used to assess the comparative stability of the molecules.

[5] = Plasma stability, quantitative LC-MS; format: in vitro ADME; settings: rat, incubation up to 24 hrs, 4 μM BDC, read-out: t1/2 (hrs) (rat plasma) (converted)
Protocol: (§4) The four BDCs were assessed for several in vitro parameters such as retention of potency to the human MT1-MMP hemopexin domain, stability in ex vivo mouse, rat and human plasma, and stability to reducing agents such as dithiothreitol.

[6] = Stability to reducing agent dithiothreitol (DTT); format: physicochemical; settings: Bicycle Drug Conjugates, quantitative LC-MS
Protocol: as §4

[7] = tested on: human lung squamous cell carcinoma line EBC-1; test: Efficacy in EBC-1 xenograft mice; format: in vivo, mouse; settings: for efficacy in EBC-1 xenograft / tolerability / body weight: EBC-1 xenograft; for ED50, effective dose to achieve 50% tumour AUC reduction: mouse bearing EBC-1 tumours, ± 95% confidence limit
Protocol: In vivo efficacy of BT17BDC-17, BT17BDC-18, BT17BDC-19 and BT17BDC-20 All BDCs containing the stabilised bicycle core sequence were tested for their efficacies in in vivo mouse xenograft models, using the human lung squamous cell carcinoma line EBC-1.
The area under the curve (AUC) of tumour volume over time and BDC was taken and plotted against the corresponding dose group (FIG. 13).

[8] = Kellogg et al (2011), cited from earlier work; for fold reduction in sensitivity to a reducing agent such as dithiothreitol: in the antibody drug conjugate context, compared to the non-hindered disulphide; for Relative Stability to DTT (ADC): values relate to antibody drug conjugates containing the same disulphide linker
MT1-MMP hemopexin domain [9] = target: T2, MT1-MMP hemopexin domain (Mus musculus, UniProt P53690); test: FP competition, species cross-reactivity (mouse); format: binding; settings: Table 13
T2 construct: MT1-MMP hemopexin domain derived from other species
Text: as §1, §2, §3

[10] = human, human plasma, quantitative LC-MS, incubation up to 24 hrs, 4 μM BDC

| SMILES | Kd (MT1-MMP hemopexin domain [2]) [nM] | half-life at 4 μM ([3]; mouse plasma) [h] | half-life at 4 μM [4, 10] [h] | half-life at 4 μM ([5]; rat plasma (ex vivo)) [h] | half-life at 4 μM ([3]; plasma) [h] | half-life at 4 μM ([5]; plasma) [h] | Relative Stability to DTT (BDC) [6] | efficacy in EBC-1 xenograft [7] | tolerability / body weight [7] | ED50, effective dose to achieve 50% tumour AUC reduction [7] | fold reduction in sensitivity to a reducing agent such as dithiothreitol [8] [fold] | Relative Stability to DTT (ADC) [8] | also measured |
| --- | --- | --- | --- | --- | --- | --- | --- | --- | --- | --- | --- | --- | --- |
| CC[C@H](C)[C@@H]1NC(=O)[C@H](CC(=O)O)NC(=O)[C@H](Cc2ccc(O)cc2)NC(=O)[C@H](Cc2ccccc2)NC(=O)[C@H](CC(=O)O)NC(=O)[C@H](CCC(=O)O)NC(=O)[C@@H]2CSCc3cc(cc(c3)CSC[C@H](NC(=O)[C@H](C)NC(=O)CN(C)C(=O)CN(C)C(=O)CN(C)C(=O)CN(C)C(=O)CN(C)C(=O)CN(C)C(=O)CN(C)C(=O)CN(C)C(=O)CN(C)C(=O)CN(C)C(=O)CN)C(=O)N[C@@H](Cc3ccc(O)cc3)C(=O)N[C@@H](CC(N)=O)C(=O)N[C@@H](CCC(=O)O)C(=O)N[C@@H](Cc3ccccc3)C(=O)NCC(=O)N2)CSC[C@@H](C(N)=O)NC1=O [17-69-07-N219, G-Sar10-A-(17-69-07)] (H-G[Sar][Sar][Sar][Sar][Sar][Sar][Sar][Sar][Sar][Sar]ACYNEFGCEDFYDIC-NH2; linker 13-19-26 via TBMB; C-terminus assumed) | 0.9 | 3.9 ± 0.3 | 30.3 ± 4.7 | 3.7 | – | – | – | – | – | – | – | – | Kd ([1]; Table 12, molecules selected for plasma stability assessment, read-out: Kd): 0.82 ± 0.09 nM; Kd ([1]; Table 13, Human/cyno MT1-MMP hemopexin domain, FP competition, read-out: Human/cyno (Kd)): 0.82 nM; Kd ([1]; Table 16, FP competition, footnote e: 17-69-07-N004 as tracer, read-out: Kd (nM) (Hemopexin domain)): 0.82 ± 0.09 nM; Kd ([1]; read-out: Kd, affinity to PEX / MT1-MMP): 0.82 nM; half-life at 10 μM ([3]; ex vivo mouse plasma at 37° C., Method #2 (FIG. 1, FIG. 3A), read-out: half-life of the peptide in mouse plasma (converted)): 6 h; half-life at 10 μM ([4]; human, human plasma, 37° C., sentence prints mouse plasma, read-out: half-life of the peptide in plasma (FIG. 3B, human plasma stability) (converted)): 6 h |
| COc1cc2cc(c1Cl)N(C)C(=O)C[C@H](OC(=O)[C@H](C)N(C)C(=O)CCC(C)(C)SSCCCC(=O)NCCC(=O)N(C)CC(=O)N(C)CC(=O)N(C)CC(=O)N(C)CC(=O)N(C)CC(=O)N(C)CC(=O)N(C)CC(=O)N(C)CC(=O)N(C)CC(=O)N(C)CC(=O)N[C@@H](C)C(=O)N[C@H]1CSCc3cc4cc(c3)CSC[C@H](NC(=O)[C@@H](C)NC(=O)[C@H](Cc3cccc5ccccc35)NC(=O)[C@H](CCC(=O)O)NC(=O)[C@H](CC(N)=O)NC(=O)[C@@H](C)NC1=O)C(=O)N[C@@H](CCC(=O)O)C(=O)N[C@@H](CC(=O)O)C(=O)N[C@@H](Cc1ccccc1)C(=O)N[C@@H](Cc1ccc(O)cc1)C(=O)N[C@@H](CC(=O)O)C(=O)N[C@@H](C(C)(C)C)C(=O)N[C@H](C(N)=O)CSC4)[C@]1(C)O[C@H]1[C@H](C)[C@@H]1C[C@@](O)(NC(=O)O1)[C@H](OC)/C=C/C=C(\C)C2 [BT17BDC-19] ({X1-βAla}-[Sar][Sar][Sar][Sar][Sar][Sar][Sar][Sar][Sar][Sar]AC[dA]NE[1Nal][dA]CEDFYD[Tle]C-NH2; linker 12-18-25 via TBMB) | – | – | – | – | > 36 | > 36 | 30 | efficacious | well tolerated at efficacious doses | 3.1 ± 1.6^b mg/kg | 14 | 14 | half-life at 4 μM ([4]; human, plasma, quantitative LC-MS, incubation up to 24 hrs, 4 μM BDC): > 14 h; t1/2 (hrs) (human plasma) ([4]; quantitative LC-MS, incubation up to 24 hrs, 4 μM BDC): 23.5 ± 4.1 h |
| COc1cc2cc(c1Cl)N(C)C(=O)C[C@H](OC(=O)[C@H](C)N(C)C(=O)CCC(C)SSC(C)CCC(=O)NCCC(=O)N(C)CC(=O)N(C)CC(=O)N(C)CC(=O)N(C)CC(=O)N(C)CC(=O)N(C)CC(=O)N(C)CC(=O)N(C)CC(=O)N(C)CC(=O)N(C)CC(=O)N[C@@H](C)C(=O)N[C@H]1CSCc3cc4cc(c3)CSC[C@H](NC(=O)[C@@H](C)NC(=O)[C@H](Cc3cccc5ccccc35)NC(=O)[C@H](CCC(=O)O)NC(=O)[C@H](CC(N)=O)NC(=O)[C@@H](C)NC1=O)C(=O)N[C@@H](CCC(=O)O)C(=O)N[C@@H](CC(=O)O)C(=O)N[C@@H](Cc1ccccc1)C(=O)N[C@@H](Cc1ccc(O)cc1)C(=O)N[C@@H](CC(=O)O)C(=O)N[C@@H](C(C)(C)C)C(=O)N[C@H](C(N)=O)CSC4)[C@]1(C)O[C@H]1[C@H](C)[C@@H]1C[C@@](O)(NC(=O)O1)[C@H](OC)/C=C/C=C(\C)C2 (stereo partly drawn) [BT17BDC-20] ({X2-βAla}-[Sar][Sar][Sar][Sar][Sar][Sar][Sar][Sar][Sar][Sar]AC[dA]NE[1Nal][dA]CEDFYD[Tle]C-NH2; linker 12-18-25 via TBMB) | – | – | – | – | > 36 | 34 ± 4 | 93 | not efficacious | tolerated based on constant weight | 22 ± 13^b mg/kg | 170 | 170 | – |
| C[C@H](NC(=O)CN(C)C(=O)CN(C)C(=O)CN(C)C(=O)CN(C)C(=O)CN(C)C(=O)CN(C)C(=O)CN(C)C(=O)CN(C)C(=O)CN(C)C(=O)CN(C)C(=O)CCN)C(=O)N[C@H]1CSCc2cc3cc(c2)CSC[C@H](NC(=O)[C@@H](C)NC(=O)[C@H](Cc2cccc4ccccc24)NC(=O)[C@H](CCC(=O)O)NC(=O)[C@H](CC(N)=O)NC(=O)[C@@H](C)NC1=O)C(=O)N[C@@H](CCC(=O)O)C(=O)N[C@@H](CC(=O)O)C(=O)N[C@@H](Cc1ccccc1)C(=O)N[C@@H](Cc1ccc(O)cc1)C(=O)N[C@@H](CC(=O)O)C(=O)N[C@@H](C(C)(C)C)C(=O)N[C@H](C(N)=O)CSC3 [17-69-07-N241, bAla-Sar10-A-(17-69-07) D-Ala1 1Nal4 D-Ala5 tBuGly11] (H-[βAla][Sar][Sar][Sar][Sar][Sar][Sar][Sar][Sar][Sar][Sar]AC[dA]NE[1Nal][dA]CEDFYD[Tle]C-NH2; linker 13-19-26 via TBMB; C-terminus assumed) | 1.4 | > 36 | > 36 | > 36 | – | – | – | – | – | – | – | – | Kd (MT1-MMP hemopexin domain [9]): 0.63 nM |
